Activity calls are given as the source filed them. The calls are words filed in the database; no cut-off is given here.
How the values were obtained:
[1] = Antioxidant activity assessed as GPx-like activity by measuring oxidation of NADPH to NADP+ by NADPH-reductase coupled assay; assay type: functional
SW480 [2] = assay: Cytotoxicity against human SW480 cells assessed as reduction in cell viability measured after 24 hrs by MTT assay; assay type: functional, cell-based; conditions: SW480, 24 h
SW480 [3] = assay: Cytotoxicity against human SW480 cells assessed as reduction in cell viability measured after 48 hrs by MTT assay; assay type: functional, cell-based; conditions: SW480, 48 h
SW480 [4] = assay: Cytotoxicity against human SW480 cells assessed as reduction in cell viability measured after 72 hrs by MTT assay; assay type: functional, cell-based; conditions: SW480, 72 h
HeLa [5] = assay: Cytotoxicity against human HeLa cells assessed as reduction in cell viability measured after 24 hrs by MTT assay; assay type: functional, cell-based
HeLa [6] = assay: Cytotoxicity against human HeLa cells assessed as reduction in cell viability measured after 48 hrs by MTT assay; assay type: functional, cell-based
HeLa [7] = assay: Cytotoxicity against human HeLa cells assessed as reduction in cell viability measured after 72 hrs by MTT assay; assay type: functional, cell-based
A549 [8] = assay: Cytotoxicity against human A549 cells assessed as reduction in cell viability measured after 24 hrs by MTT assay; assay type: functional, cell-based; conditions: A549, 24 h
A549 [9] = assay: Cytotoxicity against human A549 cells assessed as reduction in cell viability measured after 72 hrs by MTT assay; assay type: functional, cell-based; conditions: A549, 72 h
MCF7 [10] = assay: Cytotoxicity against human MCF7 cells assessed as reduction in cell viability measured after 24 hrs by MTT assay; assay type: functional, cell-based; conditions: MCF7, 24 h
MCF7 [11] = assay: Cytotoxicity against human MCF7 cells assessed as reduction in cell viability measured after 48 hrs by MTT assay; assay type: functional, cell-based; conditions: MCF7, 48 h
MCF7 [12] = assay: Cytotoxicity against human MCF7 cells assessed as reduction in cell viability measured after 72 hrs by MTT assay; assay type: functional, cell-based; conditions: MCF7, 72 h
MCF7 [13] = assay: Induction of apoptosis in human MCF7 cells assessed as down regulation of Bcl-2 expression at IC50 measured after 48 hrs by ELISA relative to control; assay type: functional
MCF7 [14] = assay: Induction of apoptosis in human MCF7 cells assessed as up regulation of IL-2 expression at IC50 measured after 48 hrs by ELISA relative to control; assay type: functional
MCF7 [15] = assay: Induction of apoptosis in human MCF7 cells assessed as up regulation of caspase-3 expression at IC50 measured after 48 hrs by ELISA relative to control; assay type: functional
[16] = Antioxidant activity assessed as DPPH radical scavenging activity incubated for 30 mins under dark condition relative to control; assay type: functional; set-up: concentration or dose not given beside the values
A549 [17] = assay: cells; conditions: Homo sapiens, A549, 48 h

| Compound | Activity [1] | IC50 (SW480 [2]) | IC50 (SW480 [3]) | IC50 (SW480 [4]) | IC50 (HeLa [5]) | IC50 (HeLa [6]) | IC50 (HeLa [7]) | IC50 (A549 [8]) | IC50 (A549 [9]) | IC50 (MCF7 [10]) | IC50 (MCF7 [11]) | IC50 (MCF7 [12]) | Activity (MCF7 [13]) | Activity (MCF7 [14]) | Activity (MCF7 [15]) | inhibition [16] | IC50 (A549 [17]) | fold change (FC) (MCF7 [14]) |
| --- | --- | --- | --- | --- | --- | --- | --- | --- | --- | --- | --- | --- | --- | --- | --- | --- | --- | --- |
| CC(C)Cc1ccc(C(C)C(=O)NCCC[Se]C(F)(F)F)cc1 (stereo not drawn) | Active | 4.9 µM | 3.3 µM | 4.2 µM | 11.5 µM | 17.4 µM | 19.7 µM | 9.4 µM | 18.5 µM | 3.4 µM | 4.3 µM | 2.8 µM | >50% | Active | Active | 68.7% | 15.2 µM |  |
| CC1=C(CC(=O)O)c2cc(F)ccc2/C1=C\c1ccc([S+](C)[O-])cc1 (stereo not drawn) |  | > 50 µM | > 50 µM | > 50 µM | > 50 µM | > 50 µM | > 50 µM | > 50 µM | > 50 µM | > 50 µM | > 50 µM | > 50 µM |  |  |  |  | > 50 µM |  |
| O=C(NCCC[Se]C(F)(F)F)c1ccccc1Nc1cccc(C(F)(F)F)c1 |  | 22.2 µM | 15.7 µM | 19.7 µM | 33.2 µM | 30.3 µM | > 50 µM | 18.1 µM | 26.4 µM | 7.2 µM | 8.4 µM | 9.3 µM |  |  |  |  | 21.3 µM |  |
| O=c1[nH]cc(F)c(=O)[nH]1 [FLUOROURACIL] |  | 15.3 µM | 12.4 µM |  | 20.6 µM | 15.5 µM | 12.7 µM | 25.3 µM | 17.3 µM | 8.5 µM | 10.4 µM | 12.6 µM |  |  |  |  |  |  |
| C[C@H](C(=O)NCCC[Se]C(F)(F)F)c1cccc(C(=O)c2ccccc2)c1 | Active | 8.2 µM | 7.4 µM | 6.5 µM | 19.6 µM | 17.5 µM | 28.7 µM | 13.1 µM | 22.6 µM | 8.6 µM | 9.3 µM | 9.5 µM |  |  |  | 48.4% | 18.4 µM |  |
| CC(C)Cc1ccc(C(C)C(=O)NCCC[Se]C#N)cc1 (stereo not drawn) | Active | 8.9 µM | 5.3 µM | 6.4 µM | 13.5 µM | 26.3 µM | 29.3 µM | 24.4 µM | 28.5 µM | 12.1 µM | 14.3 µM | 16.5 µM | Active |  | Active | 60.8% | 30.2 µM | 1.5 |
| Cc1cccc(Nc2ccccc2C(=O)NCCC[Se]C#N)c1C |  | 14.4 µM | 9.7 µM | 13.2 µM | 26.5 µM | 34.3 µM | > 50 µM | 37.3 µM | > 50 µM | 18.5 µM | 11.2 µM | 7.9 µM |  |  |  | 26.5% | > 50 µM |  |
| CC1=C(CC(=O)NCCC[Se]C(F)(F)F)c2cc(F)ccc2/C1=C\c1ccc([S+](C)[O-])cc1 (stereo not drawn) |  | 13.4 µM | 11.4 µM | 10.1 µM | 24.3 µM | 15.1 µM | 19.4 µM | 9.4 µM | 7.4 µM | 8.2 µM | 6.4 µM | 10.4 µM |  |  |  | 32.8% | 11.3 µM |  |
| CC1=C(CC(=O)NCCC[Se]C#N)c2cc(F)ccc2/C1=C\c1ccc([S+](C)[O-])cc1 (stereo not drawn) |  | 15.4 µM | 12.4 µM | 12.1 µM | 28.4 µM | 16.2 µM | 21.5 µM | 11.4 µM | 9.4 µM | 13.2 µM | 8.4 µM | 11.3 µM |  |  |  | 21.2% | 15.3 µM |  |
| COc1ccc2c(c1)c(CC(=O)NCCC[Se]C#N)c(C)n2C(=O)c1ccc(Cl)cc1 |  | 16.3 µM | 18.2 µM | 14.2 µM | 32.1 µM | 24.4 µM | 19.6 µM | 28.5 µM | > 50 µM | 28.3 µM | > 50 µM | > 50 µM |  |  |  | 49.6% | 31.2 µM |  |
| CCc1cccc2c3c([nH]c12)C(CC)(CC(=O)NCCC[Se]C(F)(F)F)OCC3 (stereo not drawn) |  | 17.5 µM | 14.5 µM | 19.6 µM | 22.8 µM | 14.4 µM | 25.5 µM | 19.4 µM | 26.6 µM | 26.2 µM | 28.4 µM | 33.5 µM |  |  |  | 26.8% | 17.7 µM |  |
| COc1ccc2cc([C@H](C)C(=O)NCCC[Se]C(F)(F)F)ccc2c1 |  | 10 µM | 15.7 µM | 25.4 µM | 16.5 µM | 22.5 µM | 30.7 µM | 28.4 µM | > 50 µM | 19.3 µM | 22.1 µM | 35.5 µM |  |  |  | 37.2% | 33.5 µM |  |
| CC(C(=O)O)c1cccc(C(=O)c2ccccc2)c1 (stereo not drawn) [KETOPROFEN] |  | > 50 µM | > 50 µM | > 50 µM | > 50 µM | > 50 µM | > 50 µM | > 50 µM | > 50 µM | > 50 µM | > 50 µM | > 50 µM |  |  |  |  | > 50 µM |  |
| N#C[Se]CCCNC(=O)c1ccccc1Nc1cccc(C(F)(F)F)c1 |  | 25.2 µM | 17.4 µM | 24.7 µM | 38.2 µM | 33.4 µM | > 50 µM | 26.1 µM | 36.4 µM | 14.2 µM | 16.4 µM | 13.3 µM |  |  |  |  | 28.3 µM |  |
| Cc1cccc(Nc2ccccc2C(=O)NCCC[Se]C(F)(F)F)c1C |  | 12.4 µM | 8.4 µM | 10.3 µM | 24.5 µM | 28.3 µM | > 50 µM | 27.3 µM | > 50 µM | 8.5 µM | 9.2 µM | 6.9 µM |  |  |  | 38.9% | 36.8 µM |  |
| C[C@H](C(=O)NCCC[Se]C#N)c1cccc(C(=O)c2ccccc2)c1 |  | 10.2 µM | 8.4 µM | 7.7 µM | 25.6 µM | 18.5 µM | 34.7 µM | 24.1 µM | 32.6 µM | 9.6 µM | 11.3 µM | 12.5 µM |  |  |  | 30.4% | 28.4 µM |  |
| CCc1cccc2c3c([nH]c12)C(CC)(CC(=O)NCCC[Se]C#N)OCC3 (stereo not drawn) |  | 19.5 µM | 18.9 µM | 20.6 µM | 26.8 µM | 17.4 µM | 28.5 µM | 28.4 µM | 36.6 µM | 35.2 µM | 37.4 µM | > 50 µM |  |  |  | 24.5% | 21.7 µM |  |
| CC(C(=O)NCCC[Se]C#N)c1ccc(-c2ccccc2)c(F)c1 (stereo not drawn) |  | 23.2 µM | 30.5 µM | 21.7 µM | 36.2 µM | 32.4 µM | 15.9 µM | 23.5 µM | > 50 µM | 22.4 µM | 32.1 µM | > 50 µM |  |  |  | 16.3% | 32.2 µM |  |
| COc1ccc2cc([C@H](C)C(=O)NCCC[Se]C#N)ccc2c1 |  | 12 µM | 21.7 µM | 30.4 µM | 21.5 µM | 24.5 µM | 35.7 µM | 32.2 µM | > 50 µM | 28.3 µM | 27.1 µM | > 50 µM |  |  |  | 22.6% | > 50 µM |  |
| COc1ccc2c(c1)c(CC(=O)NCCC[Se]C(F)(F)F)c(C)n2C(=O)c1ccc(Cl)cc1 |  | 14.6 µM | 16.4 µM | 13.1 µM | 30.1 µM | 21.4 µM | 15.6 µM | 18.3 µM | 30.3 µM | 17.3 µM | 26 µM | 35 µM |  |  |  | 25.8% | 26.5 µM |  |
| CC(C(=O)NCCC[Se]C(F)(F)F)c1ccc(-c2ccccc2)c(F)c1 (stereo not drawn) | Active | 18.3 µM | 24.4 µM | 19.5 µM | 30.2 µM | 28.4 µM | 14.9 µM | 14.5 µM | 35.4 µM | 12.1 µM | 17.1 µM | 18.5 µM |  |  |  | 40.5% | 23.2 µM |  |
| COc1ccc2c(c1)c(CC(=O)O)c(C)n2C(=O)c1ccc(Cl)cc1 [INDOMETHACIN] |  | > 50 µM | > 50 µM | > 50 µM | > 50 µM | > 50 µM | > 50 µM | > 50 µM | > 50 µM | > 50 µM | > 50 µM | > 50 µM |  |  |  |  | > 50 µM |  |

— ChEMBL document CHEMBL4765458, “Synthesis and biological evaluation of organoselenium (NSAIDs-SeCN and SeCF) derivatives as potential anticancer agents” (Eur J Med Chem, 2020)
